Results as given in ChEMBL document CHEMBL4177570, “Pyrazole C-region analogues of 2-(3-fluoro-4-methylsulfonylaminophenyl)propanamides as potent TRPV1 antagonists” (Bioorg Med Chem Lett, 2017).
pKi: −log10 of the molar value.

Legend:
[1] = biological target: T1, Transient receptor potential cation channel subfamily V member 1 (Homo sapiens, UniProt Q8NER1); assay: Antagonist activity at human TRPV1 expressed in CHO cells assessed as inhibition of capsaicin-induced intracellular calcium level preincubated for 6 mins followed by capsaicin addition by Fluo-4 dye based FLIPR assay; type: cell-based; conditions: for pKi: read-out: Ki; for Ki: cho
[2] = biological target: T1, Transient receptor potential cation channel subfamily V member 1; assay: Antagonist activity at pH 6 to 6.3 activated human TRPV1 expressed in CHO cells assessed as inhibition of intracellular calcium level preincubated with cells followed by receptor activation by Fluo-4 dye based FLIPR assay; type: cell-based
[3] = biological target: T1, Transient receptor potential cation channel subfamily V member 1; assay: Antagonist activity at human TRPV1 expressed in CHO cells assessed as inhibition of NADA-induced intracellular calcium level preincubated with cells followed by NADA addition by Fluo-4 dye based FLIPR assay
[4] = biological target: T1, Transient receptor potential cation channel subfamily V member 1; assay: Antagonist activity at elevated temperature activated human TRPV1 expressed in CHO cells assessed as inhibition of intracellular calcium level preincubated for 5 mins followed by receptor activation by increasing temperature to 45 degC by Fluo-4 dye based FLIPR assay; type: cell-based
[5] = system: Mus musculus; assay: Inhibition of capsaicin-induced hypothermia in NMRI mouse at 3 mg/kg, po pretreated for 15 mins followed by capsaicin treatment measured up to 120 mins relative to control; type: functional

T1 sequence (Q8NER1 whole entry): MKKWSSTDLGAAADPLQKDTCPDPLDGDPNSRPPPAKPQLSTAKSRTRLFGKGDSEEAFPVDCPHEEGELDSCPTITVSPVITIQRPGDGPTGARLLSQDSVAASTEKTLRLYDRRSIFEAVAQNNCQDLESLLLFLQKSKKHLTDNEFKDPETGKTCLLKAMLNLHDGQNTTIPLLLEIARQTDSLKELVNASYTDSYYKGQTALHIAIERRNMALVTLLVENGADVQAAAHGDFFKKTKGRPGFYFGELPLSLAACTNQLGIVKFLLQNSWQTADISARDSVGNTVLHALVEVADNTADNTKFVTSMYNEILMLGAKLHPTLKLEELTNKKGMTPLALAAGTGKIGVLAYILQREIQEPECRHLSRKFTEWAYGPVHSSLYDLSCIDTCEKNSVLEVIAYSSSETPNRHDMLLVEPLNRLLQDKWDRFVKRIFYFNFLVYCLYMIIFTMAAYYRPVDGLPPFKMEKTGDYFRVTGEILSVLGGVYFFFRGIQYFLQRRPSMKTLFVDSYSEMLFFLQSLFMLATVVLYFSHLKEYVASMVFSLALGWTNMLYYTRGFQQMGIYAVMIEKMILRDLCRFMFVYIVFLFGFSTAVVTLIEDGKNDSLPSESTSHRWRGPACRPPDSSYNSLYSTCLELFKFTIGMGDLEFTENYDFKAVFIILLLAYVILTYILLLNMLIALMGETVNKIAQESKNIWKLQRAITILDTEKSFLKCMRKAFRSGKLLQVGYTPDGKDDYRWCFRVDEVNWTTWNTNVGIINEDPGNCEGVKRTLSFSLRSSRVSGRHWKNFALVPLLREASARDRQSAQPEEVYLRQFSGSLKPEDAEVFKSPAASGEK

SMILES	pKi [1]	Ki [1]	other results
CCCCCCn1nc(C(C)(C)C)cc1CNC(=O)C(C)c1ccc(NS(C)(=O)=O)c(F)c1 (stereo not drawn)	7.56	–	–
C[C@H](C(=O)NCc1cc(C(C)(C)C)nn1-c1cccc(Cl)c1)c1ccc(NS(C)(=O)=O)c(F)c1	–	–	IC50 [2]: Not Active; pKi [3]: 10.40; IC50 [4]: Not Active; inhibition in vivo at 3 mg/kg [5]: 95%
COc1ccc(-n2nc(C(C)(C)C)cc2CNC(=O)C(C)c2ccc(NS(C)(=O)=O)c(F)c2)cc1 (stereo not drawn)	–	Not Active	–
CC(C(=O)NCc1cc(C(F)(F)F)nn1-c1ccc(Cl)cc1)c1ccc(NS(C)(=O)=O)c(F)c1 (stereo not drawn)	9.40	–	–
C[C@H](C(=O)NCc1cc(C(F)(F)F)nn1-c1cccc(Cl)c1)c1ccc(NS(C)(=O)=O)c(F)c1	–	–	inhibition in vivo at 3 mg/kg [5]: 85%
CC(C)(C)c1cc(CNC(=O)C(c2cccc(F)c2)c2ccc(NS(C)(=O)=O)c(F)c2)n(-c2cccc(Cl)c2)n1 (stereo not drawn)	–	Not Active	–
CCCCCn1nc(C(C)(C)C)cc1CNC(=O)C(C)c1ccc(NS(C)(=O)=O)c(F)c1 (stereo not drawn)	7.30	–	–
Cc1ccc(C(C(=O)NCc2cc(C(C)(C)C)nn2-c2cccc(Cl)c2)c2ccc(NS(C)(=O)=O)c(F)c2)cc1 (stereo not drawn)	–	Not Active	–
CC(C)(C)c1cc(CNC(=O)C(c2ccc(NS(C)(=O)=O)c(F)c2)C2CCCCC2)n(-c2cccc(Cl)c2)n1 (stereo not drawn)	–	Not Active	–
CCC/C=C/n1nc(C(C)(C)C)cc1CNC(=O)C(C)c1ccc(NS(C)(=O)=O)c(F)c1 (stereo not drawn)	8.29	–	–
Cc1ccc(/C=C/c2ccc(-n3nc(C(C)(C)C)cc3CNC(=O)C(C)c3ccc(NS(C)(=O)=O)c(F)c3)cc2)cc1 (stereo not drawn)	6.09	–	–
CC(C(=O)NCc1cc(C(C)(C)C)nn1C)c1ccc(NS(C)(=O)=O)c(F)c1 (stereo not drawn)	–	Not Active	–
CC(C(=O)NCc1cc(C(C)(C)C)n[nH]1)c1ccc(NS(C)(=O)=O)c(F)c1 (stereo not drawn)	–	Not Active	–
C[C@H](C(=O)NCc1cc(C(C)(C)C)nn1-c1ccc(F)c(Cl)c1)c1ccc(NS(C)(=O)=O)c(F)c1	10.00	–	–
CC(C(=O)NCc1cc(C(C)(C)C)nn1-c1ccccc1)c1ccc(NS(C)(=O)=O)c(F)c1 (stereo not drawn)	8.10	–	–
